Entries after “also recorded” stand apart in the source; their conditions may differ. Read-outs that look alike come from different tables or passages of the source.
How the values were obtained:
[1] = test system: human dermal fibroblasts; HDFs; assay: Real-time RT-PCR of Osteocalcin and Alkaline Phosphatase, Example 3; assay type: cell-based; settings: each compound 2 μM in calcification induction medium; day 24; FIG. 3
Procedure: The concentrations of the compounds are as follows: • D4476: 2 μM • SB431542: 2 μM • ALK5 inhibitor II: 2 μM.

[2] = test system: human adipose derived stem cells; ADSC; settings: calcification induction medium added with ALK5 inhibitor II; day 19; FIG. 5
Procedure: (§1) The calcification induction medium is 10% FBS DMEM added with 50 μg/ml ascorbic acid, 10 mM β-glycerophosphate and 100 nM Dexamethasone. The culture medium was exchanged with a fresh one every 3-4 days, and culturing was performed until day 19.
(§2) On day 19, the culture medium was removed from each well by suction, washed with PBS(−), and fixed with 10% formalin. It was washed 3 times with sterile distilled water. Thereafter, Alizarin Red S staining solution was added, and the mixture was incubated at room temperature for 15 min.

[3] = test system: human dermal fibroblasts; HDFs; settings: calcification induction medium added with ALK5 inhibitor II; day 19; FIG. 5
Procedure: as §1, §2

[4] = test system: human dermal fibroblasts; HDFs; assay: Real-time RT-PCR of CIDEA, Example 13; assay type: cell-based; settings: compound 2 μM in addition to T3 1 nM and Rosiglitazone 1 μM, adipocyte induction medium; day 14; FIG. 13
Procedure: The concentrations of the additives are as follows: • T3: 1 nM • Rosiglitazone: 1 μM • D4476: 2 μM • Pifithrin alpha [p53 inhibitor]: 5 μM • SB431542: 2 μM • ALK5 Inhibitor II: 2 μM.

[5] = test system: Human normal skin-derived fibroblasts (HDFs); assay: Alizarin Red S and ALP staining, absorbance, TGF-β pathway inhibitor panel, Examples 31-32; assay type: cell-based
Procedure: On day 21, the culture medium was removed from a part of the well, washed with PBS(-), and fixed with a fixative. It was washed 3 times with sterile distilled water. […] In the experiment of Example 31, the solution after staining with the Alizarin Red S staining solution was collected in a 96 well plate and the absorbance (OD 550 nm) was measured with an absorption spectrometer.

[6] = test system: HDF45, HDF69, HDF22; settings: 4 μM in calcification induction medium; day 10 (ALP), day 15 (Alizarin Red S); FIG. 37, 38
Excerpt: (§3) It was washed 3 times with sterile distilled water.
as §3

[7] = test system: Human normal skin-derived fibroblasts (HDFs); assay: Real-time RT-PCR of UCP1, four inhibitors, Example 39; assay type: cell-based
Procedure: The addition concentration of the compound was 4 μM, 8 μM, 12 μM or 16 μM. […] Thereafter, in Day 9-Day 14, culturing was performed in a medium free of ALK5 inhibitor II, LY2157299, SB431542, D4476.

[8] = test system: Human normal skin-derived fibroblasts (HDFs); assay: Immunostaining of UCP1, four inhibitors, Example 40; assay type: cell-based; settings: LY2157299 8 μM, SB431542 4 μM, D4476 4 μM, Day 1 to Day 8, day 14, FIG. 44
Procedure: Human normal skin-derived fibroblasts (HDFs) were suspended in a general medium (DMEM added with 10% FBS). […] The adipocyte induction medium is DMEM added with 1 nM T3, 1 μM Rosiglitazone, 0.5 mM 3-isobutyl-1-methylxanthine (IBMX), 0.5 μM dexamethasone, 1 μg/mL Insulin and 10% FBS. Once every 2 days, the culture medium was exchanged with a fresh one, and culturing was performed from Day 1 to Day 8. Thereafter, from Day 9 to Day 14, the cells were cultured in an adipocyte induction medium free of ALK5 inhibitor II, LY2157299, SB431542, D4476. On day 14, the culture medium was removed by suction from each well, and washed with PBS(−). After fixing with 4% para-formaldehyde, the well was washed with PBS (−), Permanent wave Buffer (0.2% Triton-X addition PBS) was added and the well was incubated for 15 min. After washing 3 times with PBS(−), Blocking One was added, and the mixture was incubated at room temperature for 60 min. Anti-UCP-1 antibody (RD MAB6158) was added and the mixture was reacted for 2 hrs at room temperature, and washed 3 times with Wash buffer. CF488-conjugated anti-mouse Ig antibody (Biotum 20014) was added and the mixture was reacted for 2 hrs at room temperature, and washed 3 times with PBS(−). After nuclear staining with SlowFade Gold antifade reagent with DAPI manufactured by Lifetechnology, the cells were photographed with a fluorescence microscope at ×100 magnification.

[9] = test system: Human normal skin-derived fibroblasts (HDFs); assay: Real-time RT-PCR of UCP1, CIDEA, KCNK3, Example 41; assay type: cell-based; settings: ALK5 inhibitor II or LY2157299 (8 μM), Day 1 to Day 8; day 14; FIG. 45
Procedure: Human normal skin-derived fibroblasts (HDFs) were suspended in a general medium (DMEM added with 10% FBS). […] The adipocyte induction medium is DMEM added with 1 nM T3, 1 μM Rosiglitazone, 0.5 mM 3-isobutyl-1-methylxanthine (IBMX), 0.5 μM dexamethasone, 1 μg/mL Insulin and 10% FBS. Once every 2 days, the culture medium was exchanged with a fresh one, and culturing was performed from Day 1 to Day 8. Thereafter, from Day 9 to Day 14, the cells were cultured in an adipocyte induction medium free of ALK5 inhibitor II or LY2157299. On day 14, the culture medium was removed by suction from each well, washed with PBS(−) and total RNA was extracted from the cells by using RNA easy Mini Kit manufactured by Qiagen. cDNA was synthesized from the RNA by using Rever Tra Ace qPCR RT Master Mix. This cDNA was admixed with Real-time PCR Master Mix, primers specific to UCP-1 gene, CIDEA gene, KCNK3 gene or β actin gene and Taqman probe. qRT-PCR was performed using AB7300 Real-time PCR system. The mRNA level of UCP1 gene was quantified as a ratio to β-actin gene mRNA, and calculated with the value of fibroblast cultured in the general medium as 1.

[10] = test system: Human normal skin-derived fibroblasts (HDFs); settings: 4 μM in adipocyte induction medium Day 1 to Day 8; day 14; FIG. 46
Procedure: Human normal skin-derived fibroblasts (HDFs) were suspended in a general medium (DMEM added with 10% FBS). […] The adipocyte induction medium is DMEM added with 1 nM T3, 1 μM Rosiglitazone, 0.5 mM 3-isobutyl-1-methylxanthine (IBMX), 0.5 μM dexamethasone, 1 μg/mL Insulin and 10% FBS. […] On day 14, the culture medium was removed by suction from each well, and washed with PBS(−). […] After washing 3 times with PBS(−), Blocking One was added, and the mixture was incubated at room temperature for 60 min. Anti-UCP-1 antibody (RD MAB6158) was added and the mixture was reacted for 2 hrs at room temperature, and washed 3 times with Wash buffer. CF488-conjugated anti-mouse Ig antibody (Biotum 20014) was added and the mixture was reacted for 2 hrs at room temperature, and washed 3 times with PBS(−). After nuclear staining with SlowFade Gold antifade reagent with DAPI manufactured by Lifetechnology, the cells were photographed with a fluorescence microscope at ×100 magnification.

[11] = test system: Human Epidermal Keratinocyte; NHEK (AD); assay: Real-time RT-PCR of UCP1 and CIDEA, keratinocyte to brown adipocyte, Example 43; assay type: cell-based; settings: K-adipocyte induction medium; ALK5 inhibitor II 4 μM or LY2157299 8 μM, Day 1 to Day 8; day 14; FIG. 47
Procedure: Normal human epidermal keratinocyte (Human Epidermal Keratinocyte; NHEK (AD)) were suspended in a serum-free liquid medium for normal human epidermal keratinocyte proliferation (HuMedia-KG2; manufactured by Kurabo).
The K-adipocyte induction medium is HuMedia-KG2 added with 1 nM T3, 1 μM Rosiglitazone, 0.5 mM 3-isobutyl-1-methylxanthine (IBMX), 0.5 μM dexamethasone, and 1 μg/mL Insulin.
Once every 2 days, the culture medium was exchanged with a fresh one, and culturing was performed from Day 1 to Day 8. Thereafter, from Day 9 to Day 14, the cells were cultured in a medium free of ALK5 inhibitor II or LY2157299. On day 14, the culture medium was removed by suction from each well, washed with PBS(−) and total RNA was extracted from the cells by using RNA easy Mini Kit manufactured by Qiagen. cDNA was synthesized from the RNA by using Rever Tra Ace qPCR RT Master Mix. This cDNA was admixed with Real-time PCR Master Mix, primers specific to UCP-1 gene, CIDEA gene or β actin gene and Taqman probe. qRT-PCR was performed using AB7300 Real-time PCR system. The mRNA level of UCP1 gene and CIDEA gene was quantified as a ratio to β-actin gene mRNA level, and calculated with the value of fibroblast cultured in the general medium as 1.

[12] = test system: human dermal fibroblasts; HDFs; settings: 4 μM in calcification induction medium; day 18; FIG. 22
Procedure: The calcification induction medium is a 10% FBS DMEM added with 50 μg/ml ascorbic acid, 10 mM β-glycerophosphate and 100 nM Dexamethasone. The culture medium was exchanged with a fresh one every 3-4 days, and culturing was performed until day 18.
On day 18, the culture medium was removed from each well by suction, washed with PBS, and total RNA was extracted from the cell with ISOGEN II. cDNA was synthesized from the RNA by using Rever Tra Ace qPCR RT Master Mix. This cDNA was admixed with Real-time PCR Master Mix, and primers specific to Osteocalcin, Alkaline Phosphatase or β-actin gene, and Taqman probe. qRT-PCR was performed using AB7300 Real-time PCR system. The mRNA level of Osteocalcin (Oc) and Alkaline Phosphatase (ALP) gene was quantified as a ratio to β-actin gene mRNA, and calculated with the value of fibroblast cultured in a calcification induction medium as 1.

[13] = test system: human dermal fibroblasts; HDFs; settings: 4 μM in MDI medium; day 14; FIG. 24
Procedure: MDI medium (3-isobutyl-1-methylxanthine/dexamethasone/insulin-containing medium) is 10% FBS DMEM added with 0.5 mM 3-isobutyl-1-methylxanthine (IBMX), 0.5 μM dexamethasone, and 1 μg/mL Insulin. The culture medium was exchanged with a fresh one every 3-4 days, and culturing was performed until day 14.
On day 14, the culture medium was removed from each well by suction, washed with PBS, and total RNA was extracted from the cell with ISOGEN II. cDNA was synthesized from the RNA by using Rever Tra Ace qPCR RT Master Mix. This cDNA was admixed with Real-time PCR Master Mix, and primers specific to AdipoQ, FABP4 or β-actin gene, and Taqman probe. qRT-PCR was performed using AB7300 Real-time PCR system. The mRNA level of AdipoQ and FABP4 gene was quantified as a ratio to β-actin gene mRNA level, and calculated with the value of fibroblast cultured in MDI medium as 1.

[14] = description, conditions not given

## Cc1cccc(-c2n[nH]cc2-c2ccc3ncccc3n2)n1 [ALK5 inhibitor II, 2-(3-(6-Methylpyridin-2-yl)-1H-pyrazol-4-yl)-1,5-naphthyridine]
[1]
  conversion of human fibroblast to osteoblast, Osteocalcin and Alkaline Phosphatase mRNA: converted to osteoblast expressing osteocalcin and alkaline phosphatase gene; also recorded: most efficiently converts fibroblast to osteoblast
[2]
  conversion to osteoblast, Alizarin Red S staining and OD550, fat-derived mesenchymal stem cell: converted to osteoblast having calcified bone matrix production ability
[3]
  conversion to osteoblast, Alizarin Red S staining and OD550, human fibroblast: converted to osteoblast having calcified bone matrix production ability
[4]
  conversion of fibroblast to brown adipocytes, CIDEA mRNA: converted fibroblast to brown adipocytes expressing mRNA of CIDEA gene
[5]; calcification induction medium, compounds 1 or 4 μM, TGF-β 10 ng/ml, day 21, FIG. 35, 36, listed as ALK5 i II
  conversion of human fibroblast to osteoblast, Alizarin Red S / ALP staining and absorbance: can strongly convert human fibroblast to osteoblast; also recorded: can most strongly convert human fibroblast to osteoblast
[5]; [14]
  efficiency in converting fibroblast to osteoblast (summary statement): highly efficient in converting fibroblast to osteoblast
[6]
  conversion of fibroblasts from different individuals to osteoblasts, ALP and Alizarin Red S staining: are converted to osteoblasts
[7]; 4 μM, 8 μM, 12 μM or 16 μM in adipocyte induction medium Day 1 to Day 8, then compound-free to day 14, FIG. 43
  conversion of fibroblast to brown adipocyte, UCP1 mRNA: converted fibroblast to brown adipocyte strongly expressing UCP1 gene; also recorded: most strongly induced
[7]; [14]
  efficiency in converting fibroblast to brown adipocyte (summary statement): highly efficient in converting fibroblast to brown adipocyte
[8]; ALK5 inhibitor II 4 μM
  conversion of fibroblast to brown adipocyte, UCP1 protein: converted fibroblast to brown adipocyte expressing UCP1 protein; also recorded: most strongly induced
[8]; groups 3-6: ALK5 inhibitor II 4 μM
  staining with anti-UCP1 antibody: many cells were stained with anti-UCP1 antibody; also recorded: the density of the cells stained with anti-UCP1 antibody was the highest
[9]
  conversion of fibroblast to brown adipocyte, UCP1, CIDEA and KCNK3 mRNA: converted fibroblast to brown adipocyte expressing UCP1 gene, CIDEA gene and KCNK3 gene; also recorded: more strongly induced
[10]
  fibroblasts converted to brown adipocyte highly expressing UCP1 protein (UCP1 positive cells in DAPI positive cells): more than 90%
  staining with anti-UCP1 antibody: many cells were strongly stained with anti-UCP1 antibody
[11]
  conversion of epidermal keratinocyte to brown adipocyte, UCP1 and CIDEA mRNA: converted normal human epidermal keratinocyte to brown adipocyte expressing UCP1 gene and CIDEA gene
[12]
  conversion of fibroblast to osteoblast, Osteocalcin and ALP mRNA: converted human skin-derived fibroblast to osteoblast expressing osteocalcin gene and ALP gene
[13]
  conversion of fibroblast to white adipocyte, AdipoQ and FABP4 mRNA: converted human skin-derived fibroblast to white adipocyte expressing AdipoQ gene and FABP4 gene
